Data from patent US7803783B2, “Use of WNT inhibitors to augment therapeutic index of chemotherapy” (The Board of Trustees of the Leland Stanford Junior …, priority 2002, dated 2010).

Experiments:
human bone marrow HSCs = experiment: Proliferation of human bone marrow HSCs with soluble Wnt3a; type: cell-based; conditions: absence of any other growth factor
[1] = tested on: wild type mouse bone marrow HSCs; experiment: In vitro HSC proliferation assay with purified Wnt3A; type: cell-based
Method: FIGS. 5A-5D. Wild Type HSCs proliferate to purified Wnt3A. Purified wild type mouse bone marrow HSCs were sorted by FACS and plated at 5 or 10 cells/well into 60 well Terasaki plates. Cells were incubated in X-vivo 15 (Bio Whittaker), 10% FBS, 5×10^−5M 2-Mercaptoethanol, and 1×10^−4M random methylated beta-cyclodextrin (CTD, Inc.) in the presence of either purified Wnt3A (at approx. 100 ng/ml) plus SLF (10 ng/ml) or SLF (10 ng/ml) alone, as a control. (SLF dose required ranged from 7.5 ng/ml-100 ng/ml depending on mouse strain used). Cell growth was monitored over a period of 7-9 days in culture, and is shown as total cell response (A) and the average frequency of responding wells (B) representative of over 9 independent experiments. To determine phenotypic characteristics, cells were plated in bulk (3500 cells) in 96 well plates and incubated in the presence of purified or unpurified Wnt3A.
Purified Wnt protein can regulate HSC self-renewal in the same manner as β-catenin in BCL-2 transgenic HSCs. To ensure that this response was not dependent on BCL-2 over-expression, we specifically tested whether wild type HSCs respond in a similar manner to purified Wnt3A as well. Over a period of days, HSCs plated at 1-20 cells per well, responded extremely robustly to Wnt3A in contrast to control conditions (e.g. 184 cells versus 0 when plated at 5 cells/well) (FIG. 5). The average frequency of cells that responded to Wnt3A over 3 independent experiments was 17-fold more than the proliferation to control conditions (limiting dose of SLF) when plated at 10 cells/well. […] Furthermore, the phenotypic characteristics of HSCs treated with purified or unpurified Wnt3A were dramatically different. […] Furthermore, a significant fraction of the lineage negative population expressed c-Kit and Sca-1 consistent with a HSC phenotype (D).
In vitro HSC proliferation assays. Freshly purified or virally transduced HSCs were plated at 1 to 20 cells per well in Terasaki plates. Cells were sorted into wells containing serum-free medium (X-vivo15, BioWhittaker) supplemented with 5×10^−5 M 2-mercaptoethanol and the indicated growth factors. Proliferation was monitored by counting the number of cells in each well at defined intervals. For longer-term cultures, transduced HSCs were plated in 96-well plates in the absence or presence of SLF (1 ng ml^−1), and the number of cells generated was monitored by cell counting at defined intervals. For inhibition of growth by CRD or axin, cells were cultured in the presence of mitogenic factors (SLF (30 ng ml^−1), Flt-3L (30 ng ml^−1), interleukin-6 (10 ng ml^−1)).

[2] = tested on: LEF-1/TCF reporter (TOP-dGFP); experiment: Lentiviral LEF-1/TCF reporter assay in HSCs in vitro; type: cell-based, mouse; conditions: HSCs stimulated with Wnt3a about 100 ng/ml
HSCs = experiment: Transplantation of Wnt3A-treated HSCs into lethally irradiated recipient mice; type: in vivo, mouse
Method: To test whether the cells treated with purified Wnt3A underwent self-renewal functionally, purified HSCs were plated as 1 cell or as 10 cells, treated with Wnt3A and each well containing proliferating cells transplanted individually into lethally irradiated recipient mice along with 300,000 Sca-1^− Bone Marrow cells (A). […] Since the empirically observed frequency of reconstitution of resting HSCs is ˜10% and of cycling HSCs ˜2%, the observed frequency of reconstitution of 100% for 1 plated cells is consistent with Wnt3A inducing a 10- to 50-fold increase in HSC activity, a range similar to that seen with BCL-2 transgenic HSCs.
In vivo analysis of HSC function.

For Wnt3a, the “proliferation of highly purified human bone marrow HSCs” value (human bone marrow HSCs) was “induces proliferation”, the “average frequency of cells that responded relative to control conditions” value ([1]; 10 cells/well, 3 independent experiments, control limiting dose of SLF) was 17 fold and the “lineage marker phenotype of treated HSCs” value ([1]; after 7 days in culture) was “negative for lineage markers”. The total cell response ([1]; plated at 5 cells/well, control 0) was 184 cells, the “numbers of progeny generated by singly plated HSCs compared with control conditions” value ([1]; singly plated HSCs, presence of Wnt3a) was “six-fold” and the “TOP-dGFP reporter activity (GFP expression)” value [2] was “significant reporter activity”. The frequency of reconstitution (HSCs; 1 plated cell treated with Wnt3A) was 100% and the reconstitution efficiency (HSCs; wells plated with 10 cells or 5 cells) was 100%.
